Several values for one entry are separate records, joined by “and”; a condition that tells them apart may be missing. Equal entries are not always repeated. Where two headings read alike, the source gives them in different places.
Tests used:
[1] = clinical theophylline blood level on 4th day, theophylline alone or with idrocilamide (Tables 3 and 4); settings: inferred from clinical blood levels
Procedure: A series of comparative clinical tests were conducted. Five male adults asthma patients took a simultaneous dose of 200 mg theophylline and 100 mg idocrilamide twice a day orally, at 0800 and 2000 hours. On the 4th day, after establishment of a state of equilibrium, the theophylline blood level in the patients under treatment was determined at various times. The determinations were made by highpressure liquid chromatography (Waters apparatus, Lichrosorb RP 18 adsorbent of Merck, methanol, formamide, monopotassium phosphate solvent. Detection by UV spectrophotometry).
The time in hours (t) after the morning dose is plotted on the x-axis, the time 0 corresponding to the dose of medicine on the 4th day. The theophylline blood concentrations in mg/l (th mg/l) are plotted on the y-axis.

[2] = oral toxicity (LD50) in mice; settings: mouse, in vivo, read-out: LD50 orally in mice
[3] = cited from earlier work
[4] = in vivo; settings: rat, po, 15 mg/kg
Procedure: Groups of the so-treated animals were killed by carotid section 15', 30', 1 h, 2 h, 3 h, 4 h, 6 h, and 8 h after administration of the theophylline. The blood was collected in herparinized, centrifuged tubes, and the plasma was decanted. The theophylline blood level was determined in plasma samples after extraction by liquid chromatography.

[5] = tested on: bronchial smooth muscles; settings: cited from earlier work
[6] = tested on: mastocytes; settings: hypersensitivity reactions; cited from earlier work
[7] = tested on: pulmonary vital capacity; settings: digestive disorders, nervous troubles, cardiac troubles, neurological symptoms; cited from earlier work
[8] = cited from earlier work; remark: listed apart in the source
[9] = tested on: phosphodiesterase; settings: cited from earlier work
[10] = tested on: cyclic AMP; settings: cited from earlier work

In the case of `O=C(C=Cc1ccccc1)NCCO` [Compound I, N-(2-hydroxyethyl)cinnamamide], the “action mechanism on theophylline metabolism” value [1] is reported as “interference of idrocilamide on the metabolism of theophylline” and the LD50 [2] is reported as 3000 mg/kg.

Work on `O=C(C=Cc1ccc(Cl)cc1)NCCO` [Compound II, N-(2-hydroxyethyl)-4-chlorocinnamamide] yielded an LD50 [2] of 1600 mg/kg.

Compound `CN(CCO)C(=O)C=Cc1ccccc1` [Compound III, N-methyl, N-(2-hydroxyethyl)cinnamamide] has an LD50 [2] of 3000 mg/kg.

`CC(CO)NC(=O)C=Cc1ccccc1` (stereo not shown) [Compound IV, N-[2-(1-hydroxypropyl)]cinnamamide] gave an LD50 [2] of 3200 mg/kg.

For `CC1(C)OCCN1C(=O)C=Cc1ccccc1` [Compound IX, 3-cinnamoyl-2,2-dimethyloxazolidine], the LD50 [2] was over 3200 mg/kg.

In the case of `O=C(C=Cc1ccc(F)cc1)NCCO` [Compound V, N-(2-hydroxyethyl)-4-fluorocinnamamide], the LD50 [2] is reported as over 3200 mg/kg.

In the case of `CC(=O)c1ccc(C=CC(=O)NCCO)cc1` [Compound VI, N-(2-hydroxyethyl)-4-acetylcinnamamide], the LD50 [2] is reported as 3200 mg/kg.

Compound `CC1(C)OCCN1C(=O)C=Cc1ccc(Cl)cc1` [Compound VII, 3-(4-chlorocinnamoyl)-2,2-dimethylloxazolidine] has an LD50 [2] of over 3200 mg/kg.

With `CC1(C)OCCN1C(=O)C=Cc1ccc(F)cc1` [Compound VIII, 2,2-dimethyl-3-(4-fluorocinnamoyl) oxazolidine] the LD50 [2] was 2000 mg/kg.

For `Cn1c(=O)c2[nH]cnc2n(C)c1=O` [theophylline, 1,3-dimethylxanthine], the solubility in water [3] is listed as “slightly soluble in water”, the AUC at 8 h [4] is listed as 95.1 µg·h/mL and the AUC(0-inf) [4] is listed as 117 µg·h/mL. For the same compound, the Cmax [4] was 20.3 µg/mL, the concentration at 0.25 h [4] was 17.5 µg/mL and the concentration at 0.5 h [4] was 20.3 µg/mL. The concentration at 1 h [4] was 18.9 µg/mL, the concentration at 2 h [4] was 16.7 µg/mL and the concentration at 3 h [4] was 13.9 µg/mL. It also gave a concentration at 4 h [4] of 12 µg/mL, a concentration at 6 h [4] of 8.04 µg/mL and a concentration at 8 h [4] of 4.32 µg/mL. The half-life [4] was 3.47 h, the “effect of intrapulmonary administration by aerosol” value ([5]; aerosol) was “ineffective” and the bronchodilating action [5] was “active toward all bronchoconstrictive agents”. For the same compound, the “inhibiting action on mastocytes” value [6] was “partially inhibiting their degranulation”, the “concentration above which intolerance signs can appear” value [7] was over 20 µg/mL and the metabolism ([8]; in vivo) was “metabolized at the hepatic level to give inactive metabolites eliminated by the kidneys”. For the same compound, the half-life ([8]; normal adult) was ~6 h and 4 h, the oral absorption [8] was “very good” and the oral absorption ([8]; listed as Theophylline) was “absorbed very well orally”. The rectal absorption ([8]; rectal) was “very irregular”, the inhibition of phosphodiesterase [9] was “competitive inhibition” and the “tissue increase of cyclic AMP” value [10] was “tissue increase of cyclic AMP”.

Source: patent US4512994A, “Long-acting theophylline in medicinal form” (priority 1982, dated 1985)
